This passage reports AC50 results from patent publication US10654828B2 (NOVARTIS AG, priority 2017, dated 2020).

A word on the AC50: it is the midpoint of the concentration-response curve, whichever way the signal moves.

Molecules are shown by their SMILES.

For one assay, the system named is FoxO3a. In words: FoxO3a inhibition: GFP-FoxO3a nuclear to cytoplasmic translocation reporter assay. The class given is cell-based. Particulars: Homo sapiens, U2OS, 0.5 h, U2OS GFP-FoxO3a H212R cells, serum starved overnight, compound 30 minutes; ratio of nuclear to cytosolic GFP intensity; DMSO control 0%; read-out: FoxO AC50. An outline of the steps: (§1)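 Serum-starved U2OS cells expressing GFP-FoxO3a H212R treated with compounds 30 min, fixed, imaged. FoxO3a: nuclear/cytosolic GFP ratio, %. AKT: total cellular phospho-AKT (Ser473) antibody staining intensity, %. DMSO set as 0% activity.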
On the technique in general: In a reporter assay the amount or activity of a reporter protein is the signal.

In another assay the test system is AKT. Description: AKT activation: Phospho-AKT (Ser473) antibody staining in reporter cells. Type of assay: cell-based. The following applies: Homo sapiens, U2OS, 0.5 h, U2OS GFP-FoxO3a H212R cells, serum starved overnight, compound 30 minutes; total cellular intensity of Phospho-AKT (Ser473) staining; DMSO control 0%. An outline of the steps: as §1

Consider `Cc1cc(C(N)=O)nn1-c1ccc2c(ccn2Cc2ccc(C3=CCN(S(C)(=O)=O)CC3)cc2)c1` [Example 4, 5-methyl-1-(1-(4-(1-(methylsulfonyl)-1,2,3,6-tetrahydropyridin-4-yl)benzyl)-1H-indol-5-yl)-1H-pyrazole-3-carboxamide], for which the values for the AC50 in the assay on FoxO3a and in the assay with AKT were 109 nM and 306 nM, respectively.

Regarding `Cc1cc(C(N)=O)nn1-c1ccc2c(ccn2Cc2ccc(C3=CCN(C(=O)CCCN(C)C)CC3)cc2)c1` [Example 10], the concentration at half-maximal activity (AC50) turned out to be 189 nM with FoxO3a and 512 nM with AKT.

Regarding `Cc1cc(C(N)=O)nn1-c1ccc2c(ccn2Cc2ccc(N3CCNCC3)cc2)c1` [Example 11-1, 5-methyl-1-(1-(4-(piperazin-1-yl)benzyl)-1H-indol-5-yl)-1H-pyrazole-3-carboxamide], the AC50 with FoxO3a was 4080 nM; in the assay with AKT it was > 10000 nM.

Turning to `Cc1cc(C(N)=O)nn1-c1ccc2c(ccn2Cc2ccc(N3CCN(C)CC3)cc2)c1` [Example 11-2, 5-methyl-1-(1-(4-(4-methylpiperazin-1-yl)benzyl)-1H-indol-5-yl)-1H-pyrazole-3-carboxamide], the AC50 was 341 nM with FoxO3a and 1060 nM in the assay with AKT.

In the case of `Cc1cc(C(N)=O)nn1-c1ccc2c(ccn2Cc2ccc(N3CC4CN(C)CC4C3)cc2)c1` (stereo not shown) [Example 11-3, 5-methyl-1-(1-(4-(5-methylhexahydropyrrolo[3,4-c]pyrrol-2(1H)-yl)benzyl)-1H-indol-5-yl)-1H-pyrazole-3-carboxamide], the AC50 with FoxO3a was 1160 nM; in the assay on AKT, 2970 nM.

As to `Cc1cc(C(N)=O)nn1-c1ccc2c(ccn2Cc2ccc(C#CCN(C)C)cc2)c1` [Example 12, 1-(1-(4-(3-(dimethylamino)prop-1-yn-1-yl)benzyl)-1H-indol-5-yl)-5-methyl-1H-pyrazole-3-carboxamide], the values for the AC50 with FoxO3a and with AKT were 402 nM and 1190 nM, respectively.

With `Cc1cc(C(N)=O)nn1-c1ccc2c(ccn2Cc2ccc(C3=CCN(C)C(C)(C)C3)cc2)c1` [Example 15-1, 5-methyl-1-(1-(4-(1,2,2-trimethyl-1,2,3,6-tetrahydropyridin-4-yl)benzyl)-1H-indol-5-yl)-1H-pyrazole-3-carboxamide], the AC50 with FoxO3a is 242 nM; in the assay with AKT, 391 nM.

With `Cc1cc(C(N)=O)nn1-c1ccc2c(ccn2Cc2ccc(C3=CCN(C)CC3(C)C)cc2)c1` [Example 15-2, 5-methyl-1-(1-(4-(1,3,3-trimethyl-1,2,3,6-tetrahydropyridin-4-yl)benzyl)-1H-indol-5-yl)-1H-pyrazole-3-carboxamide], the AC50 in the assay on FoxO3a was determined as 197 nM; in the assay on AKT it was 389 nM.

Consider `Cc1cc(C(N)=O)nn1-c1ccc2c(ccn2Cc2ccc(C3=CCC4(CC3)CN(C)C4)cc2)c1` [Example 15-3, 5-methyl-1-(1-(4-(2-methyl-2-azaspiro[3.5]non-6-en-7-yl)benzyl)-1H-indol-5-yl)-1H-pyrazole-3-carboxamide], for which the concentration at half-maximal activity (AC50) in the assay with FoxO3a stood at 96 nM; in the assay with AKT, 398 nM.

`Cc1cc(C(N)=O)nn1-c1ccc2c(ccn2Cc2ccc(C3CCN(C)CC3(C)C)cc2)c1` (stereo not shown) [Example 16-1, 5-methyl-1-(1-(4-(1,3,3-trimethylpiperidin-4-yl)benzyl)-1H-indol-5-yl)-1H-pyrazole-3-carboxamide]: the AC50 turned out to be 171 nM in the assay with FoxO3a and 966 nM in the assay with AKT.

As to `Cc1cc(C(N)=O)nn1-c1ccc2c(ccn2Cc2ccc(C3CCC4(CC3)CN(C)C4)cc2)c1` [Example 16-4, 5-methyl-1-(1-(4-(2-methyl-2-azaspiro[3.5]nonan-7-yl)benzyl)-1H-indol-5-yl)-1H-pyrazole-3-carboxamide], the AC50 in the assay with FoxO3a was 186 nM; in the assay on AKT, 756 nM.

On to `Cc1cc(C(N)=O)nn1-c1ccc2c(ccn2Cc2ccc(C3=CCN(C)CC3C)cc2)c1` (stereo not shown) [Example 17-1, 1-(1-(4-(1,3-dimethyl-1,2,3,6-tetrahydropyridin-4-yl)benzyl)-1H-indol-5-yl)-5-methyl-1H-pyrazole-3-carboxamide], for which the values for the AC50 in the assay with FoxO3a and in the assay on AKT were 102 nM and 460 nM, respectively.

Consider `Cc1cc(C(N)=O)nn1-c1ccc2c(ccn2Cc2ccc(-c3ccc(S(=O)(=O)CCO)cc3)cc2)c1` [Example 18, 1-(1-((4′-((2-hydroxyethyl)sulfonyl)-[1,1′-biphenyl]-4-yl)methyl)-1H-indol-5-yl)-5-methyl-1H-pyrazole-3-carboxamide], for which the AC50 with FoxO3a turned out to be 57 nM; in the assay with AKT it was 110 nM.

For `Cc1cc(C(N)=O)nn1-c1ccc2c(ccn2Cc2ccc(-c3ccc(S(=O)(=O)CCN4CCN(C)CC4)cc3)cc2)c1` [Example 19, 5-methyl-1-(1-((4′-((2-(4-methylpiperazin-1-yl)ethyl)sulfonyl)-[1,1′-biphenyl]-4-yl)methyl)-1H-indol-5-yl)-1H-pyrazole-3-carboxamide], the AC50 is 61 nM in the assay on FoxO3a and 142 nM in the assay with AKT.

As for `Cc1cc(C(N)=O)nn1-c1ccc2c(c1)c(C1=CCOCC1)cn2Cc1ccc(-c2ccc(S(C)(=O)=O)cc2)cc1` [Example 19-1, 1-(3-(3,6-dihydro-2H-pyran-4-yl)-1-((4′-(methylsulfonyl)-[1,1′-biphenyl]-4-yl)methyl)-1H-indol-5-yl)-5-methyl-1H-pyrazole-3-carboxamide], the values for the AC50 in the assay on FoxO3a and in the assay on AKT were 52 nM and 81 nM, respectively.

In the case of `Cc1cc(C(N)=O)nn1-c1ccc2c(c1)c(C1=CCN(C)CC1)cn2Cc1ccc(-c2ccc(S(C)(=O)=O)cc2)cc1` [Example 19-2, 5-methyl-1-(3-(1-methyl-1,2,3,6-tetrahydropyridin-4-yl)-1-((4′-(methylsulfonyl)-[1,1′-biphenyl]-4-yl)methyl)-1H-indol-5-yl)-1H-pyrazole-3-carboxamide], the results for the AC50 in the assay with FoxO3a and with AKT were 346 nM and 1020 nM, respectively.

As to `Cc1cc(C(N)=O)nn1-c1ccc2c(ccn2Cc2ccc(-c3ccc(S(=O)(=O)CCN(C)C)cc3)cc2)c1` [Example 19-3, 1-(1-((4′-((2-(dimethylamino)ethyl)sulfonyl)-[1,1′-biphenyl]-4-yl)methyl)-1H-indol-5-yl)-5-methyl-1H-pyrazole-3-carboxamide], the AC50 in the assay on FoxO3a was found to be 99 nM; in the assay on AKT, 128 nM.

As to `Cc1cc(C(N)=O)nn1-c1ccc2c(c1)c(C1CCOCC1)cn2Cc1ccc(-c2ccc(S(C)(=O)=O)cc2)cc1` [Example 20, 5-methyl-1-(1-((4′-(methylsulfonyl)-[1,1′-biphenyl]-4-yl)methyl)-3-(tetrahydro-2H-pyran-4-yl)-1H-indol-5-yl)-1H-pyrazole-3-carboxamide], the AC50 is 68 nM in the assay with FoxO3a and 186 nM in the assay on AKT.

Consider `Cc1cc(C(N)=O)nn1-c1ccc2c(c1)c(C1=CCNCC1)cn2Cc1ccc(-c2ccc(S(C)(=O)=O)cc2)cc1` [Example 21, 5-methyl-1-(1-((4′-(methylsulfonyl)-[1,1′-biphenyl]-4-yl)methyl)-3-(1,2,3,6-tetrahydropyridin-4-yl)-1H-indol-5-yl)-1H-pyrazole-3-carboxamide], for which the results for the AC50 with FoxO3a and with AKT were 598 nM and 1650 nM, respectively.

On to `Cc1cc(C(N)=O)nn1-c1ccc2c(c1)c(CCCO)cn2Cc1ccc(-c2ccc(S(C)(=O)=O)cc2)cc1` [Example 22, 1-(3-(3-hydroxypropyl)-1-((4′-(methylsulfonyl)-[1,1′-biphenyl]-4-yl)methyl)-1H-indol-5-yl)-5-methyl-1H-pyrazole-3-carboxamide], for which the concentration at half-maximal activity (AC50) in the assay on FoxO3a turned out to be 32 nM; with AKT it was 81 nM.

Turning to `COCCCc1cn(Cc2ccc(-c3ccc(S(C)(=O)=O)cc3)cc2)c2ccc(-n3nc(C(N)=O)cc3C)cc12` [Example 23, 1-(3-(3-methoxypropyl)-1-((4′-(methylsulfonyl)-[1,1′-biphenyl]-4-yl)methyl)-1H-indol-5-yl)-5-methyl-1H-pyrazole-3-carboxamide], the values for the AC50 in the assay on FoxO3a and in the assay with AKT were 56 nM and 173 nM, respectively.

As to `Cc1cc(C(N)=O)nn1-c1ccc2c(ccn2Cc2ccc([C@@H]3C[C@@H]4CN(C)C[C@@H]4C3)cc2)c1` [Example 26-1, 5-methyl-1-(1-(4-((3aR,5r,6aS)-2-methyloctahydrocyclopenta[c]pyrrol-5-yl)benzyl)-1H-indol-5-yl)-1H-pyrazole-3-carboxamide], the values for the AC50 in the assay with FoxO3a and with AKT were 95 nM and 314 nM, respectively.

Turning to `Cc1cc(C(N)=O)nn1-c1ccc2c(ccn2Cc2ccc([C@H]3C[C@@H]4CN(C)C[C@@H]4C3)cc2)c1` [Example 26-2, 5-methyl-1-(1-(4-((3aR,5s,6aS)-2-methyloctahydrocyclopenta[c]pyrrol-5-yl)benzyl)-1H-indol-5-yl)-1H-pyrazole-3-carboxamide], the AC50 was determined as 80 nM in the assay with FoxO3a and 362 nM in the assay with AKT.

With `Cc1nc(C(N)=O)nn1-c1ccc2c(ccn2Cc2ccc([C@@H]3C[C@@H]4CN(C)C[C@@H]4C3)cc2)c1` [Example 27, 5-methyl-1-(1-(4-((3aR,5r,6aS)-2-methyloctahydrocyclopenta[c]pyrrol-5-yl)benzyl)-1H-indol-5-yl)-1H-1,2,4-triazole-3-carboxamide], the AC50 with FoxO3a amounted to 224 nM; in the assay with AKT it was 947 nM.

Turning to `Cc1nc(C(N)=O)nn1-c1ccc2c(ccn2Cc2ccc(-c3ccc(CN4CCCC4)cc3)cc2)c1` [Example 28, 5-methyl-1-(1-((4′-(pyrrolidin-1-ylmethyl)-[1,1′-biphenyl]-4-yl)methyl)-1H-indol-5-yl)-1H-1,2,4-triazole-3-carboxamide], the AC50 in the assay with FoxO3a was determined as 87 nM; in the assay on AKT it was 251 nM.

Consider `Cc1cc(C(N)=O)nn1-c1ccc2c(ccn2Cc2ccc(-c3ccc(S(C)(=O)=O)nc3)cc2)c1` [Example 30-1, 5-methyl-1-(1-(4-(6-(methylsulfonyl)pyridin-3-yl)benzyl)-1H-indol-5-yl)-1H-pyrazole-3-carboxamide], for which the AC50 with FoxO3a was 124 nM; in the assay on AKT, 633 nM.
